Results reported in US7214386B2, “Method for the treatment and prevention of overweight in mammals” (priority 2002, dated 2007).

Experiments:
[1] = Plasma glucose in rats (oxidase-peroxidase method); details: rats on high fat diet, after 2½ weeks of treatment versus after 1 week on the high fat diet
[2] = Plasma insulin in rats (radioimmunoassay); details: rats on high fat diet, after 2½ weeks of treatment versus after 1 week on the high fat diet
3T3-L1 cells = test: Effect of dill extract on isoprenaline-stimulated lipolysis (glycerol formation) in differentiated 3T3-L1 cells; type: cell-based; details: 24 hours incubation, glycerol formation of sample A divided by that of sample B (isoprenaline alone)
Experimental: 3T3-L1 cells were grown in T75 flasks. The cells were detached by trypsin incubation (±5 min at 37° C.). After detachment, 4 ml lipolysis standard medium was added to the flask (DMEM; 10% fetal calf serum; 4.5 g/l D-glucose; 100 U/ml penicillin; 100 μg/ml streptomycin) and the cells were suspended therein. The cell suspension was then diluted in lipolysis standard medium to 50000 cells/ml (5000 cells/100 μl), and 100 μl of this diluted cell mix was transferred to a precoated well in a 96 wells plate. […] Thereafter the solution was removed). After incubation for 48 hours at 37° C., the medium was refreshed (removal of old medium and addition of 100 μl lipolysis standard medium) and the cells incubated at 37° C. After 72 hours, the supernatant was removed and 100 μl differentiation medium (5 μg/ml bovine insuline; 0.25 μM dexamethasone; 0.5 mM IBMX; in standard medium) was added. […] After 24 hours incubation at 37° C., the glycerol concentration in the supernatant was determined using a glycerol assay (Sigma Cat.no. 337) against a standard curve of glycerol in lipolysis standard medium. The relative lipolysis inhibiting activity of the dill extract was calculated by dividing the glycerol formation of sample A of interest by the glycerol formation of sample B.

Cn1c(=O)c2c(ncn2C)n(C)c1=O [caffeine]
plasma glucose levels (FIG. 3) [1]: significant reduction
plasma insulin levels (FIG. 3) [2]: no reduction

CC(C)NCC(O)c1ccc(O)c(O)c1 (stereo not drawn) [isoprenaline]
Relative lipolysis inhibiting effect (3T3-L1 cells): 1
